In article PMC13113287, “Synthesis and Biological Profiling of New 1,2,3,4-Tetrahydrobenzo[h]naphthyridine-Based Hybrids as Dual Inhibitors of β-Amyloid and Tau Aggregation with Anticholinesterase Activity” (Biomolecules, 2026):

Details: reference drugs for assay validation; mean ± SD of three experiments in triplicate

SMILES	Experimental Pe (PAMPA-BBB)
CCn1cc(C(=O)O)c(=O)c2cc(F)c(N3CCNCC3)cc21 [Norfloxacin]	0.8 ± 0.05 10^−6 cm s^−1
CN1C(C(=O)Nc2ccccn2)=C(O)c2ccccc2S1(=O)=O [Piroxicam]	2.4 ± 0.07 10^−6 cm s^−1
